In patent publication US6897219B2, “Heteroaryl diazacycloalkanes, their preparation and use” (priority 1997, dated 2005):
Where two headings read alike, the source gives them in different places.

Legend:
[1] = biological target: nAChR formed by the α7 subunit isoform (Rattus norvegicus, UniProt Q05941); experiment: biochemical; type: binding
[2] = biological target: nAChRs comprised of α4 and β2 subunits (Rattus norvegicus, UniProt P09483+P12390); experiment: In vitro inhibition of 3H-cytisine binding
Procedure: The predominant subtype with high affinity for nicotine is comprised of α4 and β2 subunits. nAChRs of the latter type can selectively be labelled by the nicotine agonist ^3H-cytisine.
Tissue Preparation: Preparations are performed at 0-4° C. unless otherwise indicated. […] The homogenate is centrifuged at 27,000×g for 10 min. The supernatant is discarded and the pellet is resuspended in fresh buffer and centrifuged a second time. The final pellet is resuspended in fresh buffer (35 ml per g of original tissue) and used for binding assays.
Assay: Aliquots of 500 μl homogenate are added to 25 μl of test solution and 25 μl of ^3H-cytisine (1 nM, final concentration), mixed and incubated for 90 min at 2° C. Non-specific binding is determined using (−)-nicotine (100 μM, final concentration). After incubation the samples are added 5 ml of ice-cold buffer and poured directly onto Whatman GF/C glass fibre filters under suction and immediately washed with 2×5 ml ice-cold buffer. The amount of radioactivity on the filters is determined by conventional liquid scintillation counting. Specific binding is total binding minus non-specific binding.

[3] = biological target: T1, neuronal nicotinic receptors (α4β2 subtype high affinity site) (Rattus norvegicus, UniProt P09483+P12390); experiment: In vitro inhibition of 3H-epibatidin binding
T1 construct: The forebrain (÷cerebellum) from a male Wistar rat (150-250 g) is homogenized; from tissue; host or cells: rat forebrain (without cerebellum) membrane homogenate
Procedure: The high affinity binding site for ^3H-epibatidin is most certainly binding to the α4β2 subtype of nicotinic receptors. The identity of the low affinity site is still unknown; does it represent a second nicotinic receptor or a second site in the same receptor.
Tissue preparation: Preparations are performed at 0-4° C. unless otherwise indicated. The forebrain (÷cerebellum) from a male Wistar rat (150-250 g) is homogenized for 10-20 sec in 20 ml Tris, HCl (50 mM, pH 7.4) using an Ultra-Turrax homogenizer. The tissue suspension is centrifuged at 27,000×g for 10 min. The supernatant is discarded and the pellet is washed three times by centrifugation at 27,000×g for 10 min in 20 ml fresh buffer, and the final pellet is resuspended in fresh buffer (400 ml per g of original tissue) and used for binding assays.
Assay: Aliquots of 2.0 ml homogenate are added to 0.100 ml of test solution and 0.100 ml of ^3H-epibatidin (0.3 nM, final concentration), mixed and incubated for 60 min at room temperature. Non-specific binding is determined using (−)-nicotine (30 μM, final concentration). After incubation the samples are poured directly onto Whatman GF/C glass fibre filters (presoaked in 0.1% PEI for at least 20 min) under suction and immediately washed with 2×5 ml ice-cold buffer. The amount of radioactivity on the filters is determined by conventional liquid scintillation counting. Specific binding is total binding minus non-specific binding.

[4] = rat cerebral cortex homogenate, 1 nM 3H-cytisine, 90 min at 2° C., read-out: 3H-cytisine IC50
[5] = rat forebrain homogenate, 0.3 nM 3H-epibatidin, 60 min at room temperature, read-out: 3H-epibatidin IC50

nAChR formed by the α7 subunit isoform, sequence (Q05941 23-502): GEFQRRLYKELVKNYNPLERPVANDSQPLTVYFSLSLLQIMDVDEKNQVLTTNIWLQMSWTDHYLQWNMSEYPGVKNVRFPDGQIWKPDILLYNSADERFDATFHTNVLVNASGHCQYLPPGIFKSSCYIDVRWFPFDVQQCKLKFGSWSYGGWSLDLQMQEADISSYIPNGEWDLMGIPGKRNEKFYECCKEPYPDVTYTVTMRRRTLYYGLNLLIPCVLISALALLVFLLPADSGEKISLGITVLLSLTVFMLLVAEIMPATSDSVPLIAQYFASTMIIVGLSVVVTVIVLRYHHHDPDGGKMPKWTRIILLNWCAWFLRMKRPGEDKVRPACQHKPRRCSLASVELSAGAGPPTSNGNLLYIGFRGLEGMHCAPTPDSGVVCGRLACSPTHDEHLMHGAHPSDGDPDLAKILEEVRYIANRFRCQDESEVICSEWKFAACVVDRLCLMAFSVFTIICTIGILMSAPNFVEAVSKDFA
T1 sequence (P09483 31-630): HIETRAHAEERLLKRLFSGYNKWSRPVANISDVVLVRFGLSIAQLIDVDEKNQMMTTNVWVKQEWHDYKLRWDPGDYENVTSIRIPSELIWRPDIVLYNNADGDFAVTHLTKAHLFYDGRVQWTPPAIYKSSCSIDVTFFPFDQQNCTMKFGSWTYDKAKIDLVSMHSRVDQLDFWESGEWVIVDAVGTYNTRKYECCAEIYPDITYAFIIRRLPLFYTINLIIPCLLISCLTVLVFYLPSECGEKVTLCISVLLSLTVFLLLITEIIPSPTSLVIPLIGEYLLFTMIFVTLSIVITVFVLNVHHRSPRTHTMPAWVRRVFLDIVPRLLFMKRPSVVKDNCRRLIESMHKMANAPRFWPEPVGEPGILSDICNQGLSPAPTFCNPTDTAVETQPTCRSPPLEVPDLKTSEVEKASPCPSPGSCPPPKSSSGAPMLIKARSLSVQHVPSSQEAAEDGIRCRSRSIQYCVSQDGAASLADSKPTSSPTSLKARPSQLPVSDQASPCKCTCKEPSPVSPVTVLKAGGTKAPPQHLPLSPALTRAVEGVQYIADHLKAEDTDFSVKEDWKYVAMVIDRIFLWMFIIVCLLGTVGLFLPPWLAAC
T1 sequence (P12390 25-500): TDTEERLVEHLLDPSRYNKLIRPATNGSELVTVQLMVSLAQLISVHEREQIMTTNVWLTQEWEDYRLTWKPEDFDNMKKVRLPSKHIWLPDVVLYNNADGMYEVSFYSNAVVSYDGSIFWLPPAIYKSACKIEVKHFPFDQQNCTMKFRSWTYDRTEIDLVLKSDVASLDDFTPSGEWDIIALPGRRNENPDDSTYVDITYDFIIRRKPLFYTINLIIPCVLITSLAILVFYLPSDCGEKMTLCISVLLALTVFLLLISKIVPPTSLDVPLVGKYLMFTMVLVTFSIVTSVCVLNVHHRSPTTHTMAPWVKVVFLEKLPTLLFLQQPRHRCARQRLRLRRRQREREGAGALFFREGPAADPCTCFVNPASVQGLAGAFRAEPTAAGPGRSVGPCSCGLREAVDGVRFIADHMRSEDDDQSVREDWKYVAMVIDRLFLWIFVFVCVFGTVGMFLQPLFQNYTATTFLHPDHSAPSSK
nAChRs comprised of α4 and β2 subunits, sequence (P09483 31-630): as the sequence (P09483 31-630) above
nAChRs comprised of α4 and β2 subunits, sequence (P12390 25-500): as the sequence (P12390 25-500) above

Compound	IC50 [1]	IC50 [2, 4]	IC50 [3, 5]	IC50 [3]	IC50 [2]	IC50 ([1]; read-out: 3H-α-bungarotoxin IC50)
CN1CCN(c2cccnc2)CC1 [Compound 1A, 4-Methyl-1-(3-pyridyl)-piperazine]	6.8 µM	–	–	–	–	–
c1cncc(N2CCNCC2)c1 [Compound 1B, 1-(3-Pyridyl)-piperazine]	> 30 µM	130 nM	630 nM	–	–	–
CCOc1cncc(N2CCNCC2)c1 [Compound 1D, 1-(5-Ethoxy-3-pyridyl)piperazine]	> 30 µM	500 nM	–	1000 nM	–	–
CN1CCCN(c2cccnc2)CC1 [Compound 1E, 4-Methyl-1-(3-pyridyl)-homopiperazine]	4.6 µM	150 nM	–	400 nM	–	–
c1cncc(N2CCCNCC2)c1 [Compound 1F, 1-(3-Pyridyl)-homopiperazine]	–	–	–	5 nM	2 nM	–
COc1cncc(N2CCCNCC2)c1 [Compound 1H, 1-(5-Methoxy-3-pyridyl)-homopiperazine]	3 µM	–	–	20 nM	2 nM	–
Clc1ccc(N2CCCNCC2)nn1 [Compound 1K, 1-(6-Chloro-3-pyridazinyl)-homopiperazine]	1.4 µM	–	–	60 nM	10 nM	–
c1cnnc(N2CCCNCC2)c1 [Compound 1L, 1-(3-Pyridazinyl)-homopiperazine]	1.6 µM	–	–	250 nM	30 nM	–
COc1cncc(N2CCN(C)C2)c1 [Compound 1M, 1-(5-Methoxy-3-pyridyl)-3-methyl-imidazolidine]	> 30 µM	–	–	8800 nM	590 nM	–
CCCCOc1cncc(N2CCNCC2)c1 [Compound 2D, 1-(5-Butoxy-3-pyridyl)piperazine]	> 30 µM	180 nM	–	1400 nM	–	–
CN1CCCN(c2cnc3ccccc3c2)CC1 [Compound 2E, 4-Methyl-1-(3-quinolinyl)-homopiperazine]	1.8 µM	340 nM	–	4900 nM	–	–
c1ccc2ncc(N3CCCNCC3)cc2c1 [Compound 2F, 1-(3-Quinolinyl)-homopiperazine]	5.9 µM	–	–	84 nM	6 nM	–
c1ccc(-c2cncc(N3CCCNCC3)c2)cc1 [Compound 2H, 1-(5-Phenyl-3-pyridyl)-homopiperazine]	37 µM	3 nM	–	20 nM	–	–
c1ccc2nc(N3CCCNCC3)cnc2c1 [Compound 2L, 1-(2-Quinoxalinyl)-homopiperazine]	27 µM	260 nM	–	2000 nM	–	–
COc1cncc(N2CCCN(C)C2)c1 [Compound 2M, 1-(5-Methoxy-3-pyridyl)-3-methyl-1,3-diazacyclohexane]	> 30 µM	–	2700 nM	–	90 nM	–
COc1cncc(N2CCNCC2)c1 [Compound 3B, 1-(5-Methoxy-3-pyridyl)-piperazine]	> 30 µM	800 nM	–	4500 nM	–	–
COc1cncc(N2CCCN(C)CC2)c1 [Compound 3E, 1-(5-Methoxy-3-pyridyl)-4-methyl-homopiperazine]	26 µM	–	750 nM	–	94 nM	–
CCOc1cncc(N2CCCNCC2)c1 [Compound 3H, 1-(5-Ethoxy-3-pyridyl)-homopiperazine]	20 µM	–	–	10 nM	2 nM	–
Clc1cncc(N2CCCNCC2)n1 [Compound 3K, 1-(6-Chloro-2-pyrazinyl)-homopiperazine]	5.6 µM	–	–	160 nM	20 nM	–
Clc1cncc(N2CCNCC2)c1 [Compound 4B, 1-(5-Chloro-3-pyridyl)-piperazine]	> 30 µM	310 nM	–	3000 nM	–	–
CCOc1cncc(N2CCCN(C)CC2)c1 [Compound 4E, 1-(5-Ethoxy-3-pyridyl)-4-methyl-homopiperazine]	> 30 µM	–	300 nM	–	50 nM	–

Compound	IC50 [1]	IC50 [2, 4]	IC50 [3, 5]	IC50 [3]	IC50 [2]	IC50 ([1]; read-out: 3H-α-bungarotoxin IC50)
CN1CCN(c2cncc(Cl)c2)CC1 [Compound 5A, 1-(5-Chloro-3-pyridyl)-4-Methyl-piperazine]	73.4 µM	–	–	650 nM	80 nM	–
CN1CCCN(c2cncc(-c3ccccc3)c2)CC1 [Compound 5E, 4-Methyl-1-(5-phenyl-3-pyridyl)-homopiperazine]	16 µM	200 nM	–	1500 nM	–	–
COc1cc(N2CCCNCC2)cnc1Cl [Compound 5F, 1-(6-Chloro-5-methoxy-3-pyridyl)-homopiperazine]	0.9 µM	–	–	5 nM	0.7 nM	–
COCCOc1cncc(N2CCCNCC2)c1 [Compound 5H, 1-(5-Methoxyethoxy-3-pyridyl)-homopiperazine]	19 µM	–	–	20 nM	2 nM	–
Cc1ccc(N2CCCNCC2)nn1 [Compound 5K, 1-(6-Methyl-3-pyridazinyl)-homopiperazine]	4.8 µM	–	–	740 nM	160 nM	–
CN1CCN(c2cncc(-c3ccccc3)c2)CC1 [Compound 6A, 4-Methyl-1-(5-phenyl-3-pyridyl)-piperazine]	> 30 µM	–	1100 nM	–	80 nM	–
COc1cncc(N2CCCNCCC2)c1 [Compound 6B, 1-(5-Methoxy-3-pyridyl)-1,5-diazacyclooctane]	2.5 µM	–	–	3.2 nM	1 nM	–
CCCCOc1cncc(N2CCCN(C)CC2)c1 [Compound 6E, 1-(5-Butoxy-3-pyridyl)-4-methyl-homopiperazine]	> 30 µM	–	240 nM	–	45 nM	–
CC(C)COc1cncc(N2CCCNCC2)c1 [Compound 6H, 1-[5-(2-Methyl-propoxy)-3-pyridyl]-homopiperazine]	> 30 µM	–	–	10 nM	2 nM	–
FC(F)(F)c1cncc(N2CCCNCC2)c1 [Compound 6K, 1-(5-Triflouromethyl-3-pyridyl)-homopiperazine]	–	9 nM	40 nM	–	–	6.4 µM
CCOc1cncc(N2CCN(C)CC2)c1 [Compound 7A, 1-(5-Ethoxy-3-pyridyl)-4-methyl-piperazine]	> 30 µM	–	–	90 nM	6 nM	–
Clc1ccc(N2CCCNCCC2)nn1 [Compound 7B, 1-(6-Chloro-3-pyridazinyl)-1,5-diazacyclooctane]	0.46 µM	–	150 nM	–	30 nM	–
COCCOc1cncc(N2CCCN(C)CC2)c1 [Compound 7E, 1-(5-Methoxyethoxy-3-pyridyl)-4-methyl-homopiperazine]	> 30 µM	–	550 nM	–	70 nM	–
Clc1ccc(N2CCCCNCC2)nn1 [Compound 8B, 1-(6-Chloro-3-pyridazinyl)-1,4-diazacyclooctane]	5.5 µM	550 nM	–	920 nM	–	–
CC(C)COc1cncc(N2CCCN(C)CC2)c1 [Compound 8E, 4-Methyl-1-[5-(2-methyl-propyloxy)-3-pyridyl]-homopiperazine]	> 30 µM	–	450 nM	–	70 nM	–
Brc1ccc(N2CCCNCC2)cn1 [Compound 8K, 1-(6-Bromo-3-pyridyl)-homopiperazine]	0.62 µM	1 nM	–	10 nM	–	–
CCOc1cncc(N2CCN(CC)CC2)c1 [Compound 9D, 1-(5-Ethoxy-3-pyridyl)-4-ethyl-piperazine]	> 30 µM	–	–	210 nM	70 nM	–
CN1CCCN(c2cncc(OCC3CC3)c2)CC1 [Compound 9E, 1-(5-Cyclopropylmethoxy-3-pyridyl)-4-methyl-homopiperazine]	> 30 µM	–	4800 nM	–	78 nM	–
c1ncc(N2CCCNCC2)cc1OCC1CC1 [Compound 9H, 1-(5-Cyclopropylmethoxy-3-pyridyl)-homopiperazine]	> 30 µM	–	–	6 nM	1 nM	–
CCCOc1cncc(N2CCCN(C)CC2)c1 [Compound 10E, 4-Methyl-1-(5-propyloxy-3-pyridyl)-homopiperazine]	> 30 µM	–	290 nM	–	60 nM	–
COc1cncc(N2CCCNC(C)CC2)c1 (centres unmarked) [Compound 11A]	> 30 µM	–	–	–	40 nM	–
